Patent US20080194556A1, “Quinazolines and Their Use as Aurora Kinase Inhibitors” (ASTRAZENECA AB, priority 2005, published 2008)

Tests used:
aurora B-INCENP enzyme = target: T1, aurora B-INCENP enzyme (Homo sapiens, UniProt Q96GD4); experiment: In vitro aurora B kinase inhibition test; format: biochemical; conditions: 33P incorporation into peptide substrate, 60 minutes at room temperature, read-out: IC50 (50% inhibition of enzyme activity), aurora B kinase
T1 construct: 6-histidine; purchased Upstate
Text: (b) In Vitro Aurora B Kinase Inhibition Test
This assay determines the ability of a test compound to inhibit serine-threonine kinase activity. DNA encoding aurora B may be obtained by total gene synthesis or by cloning. This DNA may then be expressed in a suitable expression system to obtain polypeptide with serine-threonine kinase activity. In the case of aurora B, the coding sequence was isolated from cDNA by polymerase chain reaction (PCR) and cloned into the pFastBac system in a manner similar to that described above for aurora A (i.e. to direct expression of a 6-histidine tagged aurora B protein).
For the large scale expression of aurora B kinase activity, Sf21 insect cells were grown at 28° C. in TC100 medium supplemented with 10% foetal calf serum (Viralex) and 0.2% F68 Pluronic (Sigma) on a Wheaton roller rig at 3 r.p.m. When the cell density reached 1.2×10^6 cells ml^−1 they were infected with plaque-pure aurora B recombinant virus at a multiplicity of infection of 1 and harvested 48 hours later. All subsequent purification steps were performed at 4° C. Frozen insect cell pellets containing a total of 2.0×10^8 cells were thawed and diluted with lysis buffer (50 mM HEPES (N-[2-hydroxyethyl]piperazine-N′-[2-ethanesulphonic acid]) pH7.5 at 4° C., 1 mM Na3VO4, 1 mM PMSF (phenylmethylsulphonyl fluoride), 1 mM dithiothreitol, 1 μg/ml aprotinin, 1 μg/ml pepstatin, 1 μg/ml leupeptin), using 1.0 ml per 2×10^7 cells. Lysis was achieved using a sonication homogeniser, following which the lysate was centrifuged at 41,000 g for 35 minutes. Aspirated supernatant was pumped onto a 5 mm diameter chromatography column containing 1.0 ml CM sepharose Fast Flow (Amersham Pharmacia Biotech) which had been equilibrated in lysis buffer. A baseline level of UV absorbance for the eluent was reached after washing the column with 12 ml of lysis buffer followed by 7 ml of wash buffer (50 mM HEPES pH7.4 at 4° C., 1 mM dithiothreitol). […]

[1] = tested on: SW620 human colon tumour cells; experiment: In vitro cell phenotype and substrate phosphorylation assay (phosphohistone H3 levels); format: cell-based; conditions: SW-620, 24 hours of treatment, read-out: IC50 (inhibition of phosphohistone H3 levels)
Experimental: (c) In Vitro Cell Phenotype and Substrate Phosphorylation Assay
This assay is used to determine the cellular effects of compounds on SW620 human colon tumour cells in vitro. Compounds typically cause inhibition of levels of phosphohistone H3 and an increase in the nuclear area of the cells.
10^4 SW620 cells per well were plated in 100 μl DMEM media (containing 10% FCS and 1% glutamine) (DMEM is Dulbecco's Modified Eagle's Medium (Sigma D6546)) in costar 96 well plates and left overnight at 37° C. and 5% CO2 to adhere. The cells were then dosed with compound diluted in media (50 μl is added to each well to give 0.00015μ-1 μM concentrations of compound) and after 24 hours of treatment with compound, the cells were fixed.
The cells were first examined using a light microscope and any cellular changes in morphology were noted. 100 μl of 3.7% formaldehyde was then added to each well, and the plate was left for at least 30 minutes at room temperature. Decanting and tapping the plate on a paper towel removed the fixative and plates were then washed once in PBS (Dulbecco's Phosphate Buffered Saline (Sigma D8537)) using an automated plate washer. 100 μl PBS and 0.5% triton X-100 was added and the plates were put on a shaker for 5 minutes. The plates were washed in 100 μl PBS and solution tipped off. 50 μl of primary antibody, 1:500 rabbit anti-phosphohistone H3 in PBS 1% BSA (bovine serum albumin) and 0.5% tween, was added. Anti-phosphohistone H3 rabbit polyclonal 06-750 was purchased from Upstate Biotechnology. The plates were left 1 hour at room temperature on a shaker.
The next day, the antibody was tipped off and the plates were washed twice with PBS. In an unlit area, 50 μl of secondary antibody, 1:10,000 Hoechst and 1:200 Alexa Fluor 488 goat anti rabbit IgGA (cat no. 11008 molecular probes) in PBS 1% BSA, 0.5% tween was added. The plates were wrapped in tin foil and shaken for 1 hour at room temperature. The antibody was tipped off and plates were washed twice with PBS. […] 100 μl PBS was added to each well and the plates were sealed ready to analyse. […]

[2] = tested on: drug-resistant MCF7-ADR human breast tumour cells; experiment: In vitro drug-resistant cell phenotype and substrate phosphorylation assay (phosphohistone H3 levels); format: cell-based; conditions: NCI/ADR-RES, 24 hours of treatment, read-out: IC50 (inhibition of phosphohistone H3 levels)
Experimental: (d) In Vitro Drug-Resistant Cell Phenotype and Substrate Phosphorylation Assay.
This assay is used to determine the cellular effects of compounds on drug-resistant MCF7-ADR human breast tumour cells in vitro.
Compounds typically cause inhibition of levels of phosphohistoneH3 and an increase in the nuclear area of treated cells.
0.8×10^4 MCF7-ADR cells per well were plated in 100 μl DMEM media (containing 10% FCS (foetal calf serum) and 1% glutamine) in costar 96 well plates and left overnight at 37° C. and 5% CO2 to adhere.
All other procedures are identical to those for the above assay using SW620 cells.
The compounds of the invention generally have EC50 values for inhibition of phosphohistone H3 levels of 0.5 nM to 0.1 μM.

T1 sequence (Q96GD4 whole entry): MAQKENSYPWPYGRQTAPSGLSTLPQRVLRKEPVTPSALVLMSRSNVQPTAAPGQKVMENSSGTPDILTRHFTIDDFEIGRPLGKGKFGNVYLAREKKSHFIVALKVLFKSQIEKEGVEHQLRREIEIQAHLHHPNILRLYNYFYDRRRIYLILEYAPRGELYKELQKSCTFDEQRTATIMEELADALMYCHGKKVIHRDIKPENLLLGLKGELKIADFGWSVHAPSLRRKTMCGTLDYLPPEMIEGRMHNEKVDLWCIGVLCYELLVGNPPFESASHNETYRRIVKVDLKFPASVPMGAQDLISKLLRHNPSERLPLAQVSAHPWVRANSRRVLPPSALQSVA
T1 sequence (Q9NQS7 826-918 partner): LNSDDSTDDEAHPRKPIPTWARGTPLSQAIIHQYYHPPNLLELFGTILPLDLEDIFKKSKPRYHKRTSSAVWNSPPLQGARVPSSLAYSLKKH

Row | IC50 (aurora B-INCENP enzyme) [nM] | IC50 [1] [nM] | IC50 [2] [nM] | Compound
1 | 0.1 | 2 | 4 | CCOc1cc(OC[C@H]2COCCN2)c2c(Nc3cnn(CC(=O)Nc4cccc(F)c4F)c3)ncnc2c1 [Compound 3, N-(2,3-difluorophenyl)-2-[4-({7-ethoxy-5-[(3R)-morpholin-3-ylmethoxy]quinazolin-4-yl}amino)-1H-pyrazol-1-yl]acetamide]
2 | 0.5 | 2 | 20 | CCOc1cc(OC[C@H]2CCCN2)c2c(Nc3cnn(CC(=O)Nc4cccc(F)c4F)c3)ncnc2c1 [Compound 2, N-(2,3-difluorophenyl)-2-[4-({7-ethoxy-5-[(2R)-pyrrolidin-2-ylmethoxy]quinazolin-4-yl}amino)-1H-pyrazol-1-yl]acetamide]
3 | 0.5 | 5.5 | 17 | CCOc1cc(OC[C@H]2CCCN2C)c2c(Nc3cnn(CC(=O)Nc4cccc(F)c4F)c3)ncnc2c1 [Compound 1, N-(2,3-difluorophenyl)-2-{4-[(7-ethoxy-5-{[(2R)-1-methylpyrrolidin-2-yl]methoxy}quinazolin-4-yl)amino]-1H-pyrazol-1-yl}acetamide]
